From patent US20260069552A1, “Methods of Providing a Cooling Sensation to Skin Afflicted with Eczema” (Kenvue Brands LLC, priority 2022, published 2026)

Tested on: Staphylococcus epidermidis (ATCC 12228)
Test: In vitro bacteria competition assay (co-culture)
Assay type: cell-based
Details: 1:1 co-culture with S. aureus in Nutrient Broth, 24 hours aerobic, CFU/mL; versus untreated; w/v % as in label; n=3
Method: In vitro bacteria competition assay evaluated Staphylococcus epidermidis (ATCC 12228, skin health associated strain) and Staphylococcus aureus (ATCC 6538, human lesion isolate) co-culture in the presence of test materials. Percentages are w/v % in liquid medium (Nutrient Broth, Culture Media and Supplies Inc.) To mimic the microenvironment of the skin surface, an aerobic, co-culture system of S. epidermidis and S. aureus was established. 50 μL S. epidermidis and 50 μL S. aureus (a 1:1 ratio) were inoculated (50 μL at approximately 5.0×10^6 CFU/mL each) in Nutrient Broth and in the presence of the test materials as specified in Table 14 below. [table] Test groups were incubated aerobically for 24 hours (n=3 per test group) After 24 hours, each test group was plated onto agar and incubated aerobically for 24 hours […]. After incubation, colonies were counted, and CFU/mL calculated. S. epidermidis and S. aureus colonies were differentiated on agar (Tryptic Soy Agar+5% sheep's blood, BD Diagnostics) based on representative morphology.

CC(O)C(=O)O (stereo not shown) [Lactic Acid (1.1%), Lactic acid]
S. epidermidis growth in bacteria competition assay: inhibited
